Reference: PubChem BioAssay (NCI)
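These data come from cells grown in 96-well plates and exposed to compound for 48 hours at five concentrations. TGI denotes the concentration required for complete inhibition of growth.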

Experiments:
Test in all cases: growth of human tumour cells (NCI), 48 h
M14 melanoma = tested on: M14 melanoma
OVCAR-4 ovarian = tested on: OVCAR-4 ovarian
ACHN renal = tested on: ACHN renal
OVCAR-8 ovarian = tested on: OVCAR-8 ovarian
EKVX NSCLC = tested on: EKVX NSCLC
MDA-MB-231 breast = tested on: MDA-MB-231 breast
SF-295 CNS = tested on: SF-295 CNS
SK-OV-3 ovarian = tested on: SK-OV-3 ovarian
TK-10 renal = tested on: TK-10 renal
HOP-92 NSCLC = tested on: HOP-92 NSCLC
HL-60(TB) leukemia = tested on: HL-60(TB) leukemia
HCT-15 colon = tested on: HCT-15 colon
SW-620 colon = tested on: SW-620 colon
OVCAR-3 ovarian = tested on: OVCAR-3 ovarian
CCRF-CEM leukemia = tested on: CCRF-CEM leukemia
UACC-257 melanoma = tested on: UACC-257 melanoma
UO-31 renal = tested on: UO-31 renal
CAKI-1 renal = tested on: CAKI-1 renal
SF-539 CNS = tested on: SF-539 CNS

N=C(N)C1CN(CC=O)C(=O)NC1=O (stereo not drawn) showed a TGI (M14 melanoma) of over 100 µM, a TGI (OVCAR-4 ovarian) of over 100 µM and a TGI (ACHN renal) of over 100 µM. For the same molecule, the TGI (OVCAR-8 ovarian) was over 100 µM, the TGI (EKVX NSCLC) was over 100 µM and the TGI (MDA-MB-231 breast) was over 100 µM. The TGI (SF-295 CNS) was over 100 µM, the TGI (SK-OV-3 ovarian) was over 100 µM and the TGI (TK-10 renal) was over 100 µM. The TGI (HOP-92 NSCLC) was over 100 µM, the TGI (HL-60(TB) leukemia) was over 100 µM and the TGI (HCT-15 colon) was over 100 µM. For the same molecule, the TGI (SW-620 colon) was over 100 µM, the TGI (OVCAR-3 ovarian) was over 100 µM and the TGI (CCRF-CEM leukemia) was over 100 µM. For the same molecule, the TGI (UACC-257 melanoma) was over 100 µM and the TGI (UO-31 renal) was over 100 µM.

Cc1ccnc2nc3[nH]c4ccccc4c3cc12 was tested, and the TGI (M14 melanoma) was over 100 µM, the TGI (OVCAR-4 ovarian) was over 100 µM and the TGI (CAKI-1 renal) was over 100 µM. For the same molecule, the TGI (ACHN renal) was over 100 µM, the TGI (OVCAR-8 ovarian) was over 100 µM and the TGI (EKVX NSCLC) was over 100 µM. For the same molecule, the TGI (MDA-MB-231 breast) was over 100 µM, the TGI (SF-295 CNS) was over 100 µM and the TGI (TK-10 renal) was over 100 µM. The TGI (SF-539 CNS) was over 100 µM, the TGI (HOP-92 NSCLC) was over 100 µM and the TGI (HCT-15 colon) was over 100 µM. The TGI (SW-620 colon) was over 100 µM, the TGI (OVCAR-3 ovarian) was over 100 µM and the TGI (CCRF-CEM leukemia) was over 100 µM. It also gave a TGI (UACC-257 melanoma) of over 100 µM and a TGI (UO-31 renal) of over 100 µM.

With O=c1[nH]c2ccsc2c(=O)n1COCc1ccccc1 the TGI (M14 melanoma) was over 100 µM, the TGI (OVCAR-4 ovarian) was over 100 µM and the TGI (CAKI-1 renal) was over 100 µM. For the same molecule, the TGI (ACHN renal) was over 100 µM, the TGI (OVCAR-8 ovarian) was over 100 µM and the TGI (EKVX NSCLC) was over 100 µM. It also gave a TGI (MDA-MB-231 breast) of over 100 µM, a TGI (SF-295 CNS) of over 100 µM and a TGI (TK-10 renal) of over 100 µM. The TGI (SF-539 CNS) was over 100 µM, the TGI (HOP-92 NSCLC) was over 100 µM and the TGI (HL-60(TB) leukemia) was over 100 µM. It also gave a TGI (HCT-15 colon) of over 100 µM, a TGI (SW-620 colon) of over 100 µM and a TGI (OVCAR-3 ovarian) of over 100 µM. It also gave a TGI (CCRF-CEM leukemia) of over 100 µM, a TGI (UACC-257 melanoma) of over 100 µM and a TGI (UO-31 renal) of over 100 µM.

In the case of CC(Oc1ccc(Cl)cc1Cl)C(=O)NN1C(=O)CSC1c1ccc(Cl)cc1 (stereo not drawn), the TGI (M14 melanoma) is reported as over 100 µM, the TGI (OVCAR-4 ovarian) is reported as over 100 µM and the TGI (CAKI-1 renal) is reported as 34.2 µM. The TGI (ACHN renal) was over 100 µM, the TGI (OVCAR-8 ovarian) was over 100 µM and the TGI (EKVX NSCLC) was over 100 µM. The TGI (MDA-MB-231 breast) was 97.4 µM, the TGI (SF-295 CNS) was over 100 µM and the TGI (SK-OV-3 ovarian) was over 100 µM. For the same molecule, the TGI (TK-10 renal) was over 100 µM, the TGI (SF-539 CNS) was 43.9 µM and the TGI (HOP-92 NSCLC) was 66.3 µM. It also gave a TGI (HL-60(TB) leukemia) of 84.7 µM, a TGI (HCT-15 colon) of over 100 µM and a TGI (SW-620 colon) of over 100 µM. The TGI (OVCAR-3 ovarian) was over 100 µM, the TGI (UACC-257 melanoma) was over 100 µM and the TGI (UO-31 renal) was over 100 µM.

CCn1c(=O)c2c3ccc(O)cc3oc2c2ccc(O)cc21 gave a TGI (M14 melanoma) of over 100 µM, a TGI (OVCAR-4 ovarian) of over 100 µM and a TGI (CAKI-1 renal) of over 100 µM. For the same molecule, the TGI (ACHN renal) was 88 µM, the TGI (OVCAR-8 ovarian) was over 100 µM and the TGI (EKVX NSCLC) was 7.39 µM. It also gave a TGI (MDA-MB-231 breast) of over 100 µM, a TGI (SF-295 CNS) of over 100 µM and a TGI (SK-OV-3 ovarian) of over 100 µM. It also gave a TGI (TK-10 renal) of over 100 µM, a TGI (SF-539 CNS) of over 100 µM and a TGI (HOP-92 NSCLC) of over 100 µM. It also gave a TGI (HCT-15 colon) of over 100 µM, a TGI (SW-620 colon) of over 100 µM and a TGI (OVCAR-3 ovarian) of over 100 µM. It also gave a TGI (CCRF-CEM leukemia) of over 100 µM, a TGI (UACC-257 melanoma) of over 100 µM and a TGI (UO-31 renal) of 78.3 µM.

In the case of Cc1ccc(S(=O)(=O)n2cnc(CC(NC(=O)C3CCC(=O)N3C(=O)OCc3ccccc3)C(=O)N3CCCC3C(=O)NN)c2)cc1 (stereo not drawn), the TGI (M14 melanoma) is reported as over 100 µM, the TGI (ACHN renal) is reported as over 100 µM and the TGI (OVCAR-8 ovarian) is reported as over 100 µM. For the same molecule, the TGI (EKVX NSCLC) was over 100 µM, the TGI (MDA-MB-231 breast) was over 100 µM and the TGI (TK-10 renal) was over 100 µM. It also gave a TGI (HOP-92 NSCLC) of over 100 µM, a TGI (HL-60(TB) leukemia) of over 100 µM and a TGI (HCT-15 colon) of over 100 µM. It also gave a TGI (SW-620 colon) of over 100 µM, a TGI (UACC-257 melanoma) of over 100 µM and a TGI (UO-31 renal) of over 100 µM.

CCCCc1ccc(N2C(=O)c3cccnc3S2(=O)=O)cc1 gave a TGI (M14 melanoma) of over 100 µM, a TGI (OVCAR-4 ovarian) of over 100 µM and a TGI (CAKI-1 renal) of over 100 µM. The TGI (ACHN renal) was over 100 µM, the TGI (OVCAR-8 ovarian) was over 100 µM and the TGI (EKVX NSCLC) was over 100 µM. For the same molecule, the TGI (MDA-MB-231 breast) was over 100 µM, the TGI (SF-295 CNS) was over 100 µM and the TGI (SK-OV-3 ovarian) was over 100 µM. The TGI (SF-539 CNS) was over 100 µM, the TGI (HOP-92 NSCLC) was over 100 µM and the TGI (HL-60(TB) leukemia) was over 100 µM. For the same molecule, the TGI (HCT-15 colon) was over 100 µM, the TGI (SW-620 colon) was over 100 µM and the TGI (OVCAR-3 ovarian) was over 100 µM. The TGI (CCRF-CEM leukemia) was over 100 µM, the TGI (UACC-257 melanoma) was over 100 µM and the TGI (UO-31 renal) was over 100 µM.
